Some test systems named below: A498 renal; CAKI-1 renal; COLO 205 colon; DMS 273 small cell lung; HL-60(TB) leukemia; HOP-18 NSCLC; HOP-92 NSCLC; HT29 colon; KM20L2 colon; M19-MEL melanoma; MALME-3M melanoma; MOLT-4 leukemia; NCI-H23 lung; NCI/ADR-RES ovarian; SF-539 CNS; UACC-257 melanoma; LXFL 529 NSCLC; SR leukemia; MDA-MB-231 breast; MDA-N.
What all share (test): NCI tumour cell line growth inhibition, 48 h

Molecules are shown by their SMILES.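 Cultured in 96-well plates, cells were exposed to test compound for 48 hours across five concentrations. TGI: concentration producing complete growth inhibition.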

`CC(C)[C@](O)(C(=O)OCC1CC[N+]2([O-])CC[C@@H](O)C12)[C@H](C)O` (stereo not given in full): the TGI in the test with A498 renal is more than 59.4 µM; with CAKI-1 renal, more than 375 µM; in the test on COLO 205 colon, more than 375 µM; in the test with DMS 273 small cell lung it was more than 375 µM; in the test with HL-60(TB) leukemia, more than 375 µM; in the test on HOP-18 NSCLC, more than 375 µM. For the same compound, the TGI with HOP-92 NSCLC was more than 375 µM; in the test on HT29 colon it was more than 375 µM; with KM20L2 colon, more than 375 µM; in the test with M19-MEL melanoma it was more than 375 µM; with MALME-3M melanoma, more than 256 µM; in the test on MOLT-4 leukemia, more than 375 µM. Moreover, the TGI in the test with NCI-H23 lung, with NCI/ADR-RES ovarian, in the test on SF-539 CNS and with UACC-257 melanoma was more than 375 µM each time.
Regarding `CCO[C@]12C[C@H](OC)[C@@]3(O)CC(C1[C@H]3O)C13C4C2[C@H](OC)C1[C@](COC)(CN4CC)[C@H](O)C[C@@H]3OC` (stereo not given in full), the TGI in the test on COLO 205 colon, with DMS 273 small cell lung, with HL-60(TB) leukemia, in the test on HT29 colon, with KM20L2 colon and in the test with LXFL 529 NSCLC was more than 100 µM in each case. Besides, the TGI in the test with M19-MEL melanoma, in the test with MOLT-4 leukemia, in the test with NCI-H23 lung, in the test on SF-539 CNS, in the test on SR leukemia and with UACC-257 melanoma was more than 100 µM in each case.
`CCCCN1C(=O)NC(Cc2ccccc2)C1=O` (stereo not given): the TGI in the test on CAKI-1 renal, in the test with DMS 273 small cell lung, with HOP-18 NSCLC, in the test with HT29 colon, in the test on KM20L2 colon and in the test on LXFL 529 NSCLC was more than 100 µM throughout. Besides, the TGI in the test on M19-MEL melanoma, in the test on MALME-3M melanoma, in the test on NCI-H23 lung, in the test on SF-539 CNS, in the test with SR leukemia and in the test on UACC-257 melanoma was more than 100 µM each time.
`COc1ccc(N2C(=O)C3c4[nH]c5cccc(C)c5c4C4CCC(C(C)(C)C)CC4C3C2=O)cc1` (stereo not given): the TGI in the test with A498 renal, in the test on CAKI-1 renal, with COLO 205 colon, in the test on HL-60(TB) leukemia, in the test on HT29 colon and with MALME-3M melanoma was more than 10 µM throughout. Besides, the TGI in the test on MDA-MB-231 breast, with MDA-N, with MOLT-4 leukemia, with NCI-H23 lung, with NCI/ADR-RES ovarian and in the test with SF-539 CNS was more than 10 µM in each case. In addition, the TGI in the test with SR leukemia was more than 10 µM.
For the compound `Cc1ccc(-c2csc(=Nc3c(C)n(C)n(-c4ccccc4)c3=O)n2CCO)cc1`, the TGI with A498 renal, in the test with CAKI-1 renal, in the test with HL-60(TB) leukemia, in the test with HOP-92 NSCLC, in the test on MDA-MB-231 breast and in the test on MDA-N was more than 100 µM in each case. The TGI in the test with MOLT-4 leukemia, in the test with NCI-H23 lung, with NCI/ADR-RES ovarian, in the test with SF-539 CNS, in the test with SR leukemia and in the test on UACC-257 melanoma was more than 100 µM in each case.

(Values after PubChem BioAssay (NCI).)
